Our source for the EC50, IC50 and SUVmax values is ChEMBL document CHEMBL6078624, “Structure-based discovery of a 4,5-Dihydropyrazole-cored PET ligand for imaging of receptor-interacting serine/threonine-protein kinase 1 (RIPK1) in the brain” (Eur J Med Chem, 2024).

A short description of data set [1]: Inhibition of TSZ-induced necroptosis in human HT-29 cells by CellTiter-Glo luminescent cell viability assay.
The next data set has as its system HT-29. Put plainly: Anti-necroptotic activity against TNF induced human HT-29 cells assessed as cell viability incubated for 48 hrs by Cell Titer-Glo luminescent cell viability assay. Format: functional, cell-based. The settings on record: HT-29, 48 h. For orientation: Cellular ATP, detected with luciferase, serves as a proxy for viable cell number.
A further data set concerns L929. Put plainly: Anti-necroptotic activity against TNF induced mouse L929 cells assessed as cell viability incubated for 24 hrs by Cell Titer-Glo luminescent cell viability assay. As to conditions: L929, 24 h. Format: functional, cell-based.
The nature of data set [2]: Drug uptake in macaque brain measured at 5 mins by micro-PET imaging analysis. The data set is classed as ADME, tissue-based. As to conditions: macaca, in vivo.

A word on the EC50: it is the concentration needed to bring the measured effect to its halfway point. As for `O=C(c1cccc(F)n1)N1CCC(C(=O)N2N=CCC2c2ccccc2)CC1` (centres undefined), the EC50 in data set [1] was found to be 242 nM. For the compound `O=C(c1cccc(F)n1)N1CCC(C(=O)N2N=CCC2c2cc(F)cc(F)c2)CC1` (centres undefined), the EC50 in data set [1] amounted to 100 nM.

In data set [1], `O=C(c1ccccn1)N1CCC(C(=O)N2N=CCC2c2cccc(F)c2)CC1` (centres undefined) showed a 50% effective concentration (EC50) of 68.2 nM. The EC50 values of the last two compounds are within 1.5-fold of each other. With `O=C(c1cccc(F)n1)N1CCC(C(=O)N2N=CCC2c2cccc(F)c2)CC1` (centres undefined), the midpoint of the response in data set [1], the EC50, lay at 98.3 nM. Same read-out and setting: the result for `Cc1ccc(C2CC=NN2C(=O)C2CCN(C(=O)c3cccc(F)n3)CC2)cc1F` (centres undefined) reads 19.9 nM; that for `O=C(c1ccccn1)N1CCC(C(=O)N2N=CCC2c2cc(F)cc(F)c2)CC1` (centres undefined), 47.7 nM. For orientation: IC50 means the concentration that gives 50% inhibition. As to `Cc1ncc(-c2ccc3nc(N[11C](C)=O)sc3c2)cc1NC(=O)CC1CCCCC1`, the IC50 in the data set on HT-29 is 23 nM; in the data set on L929, 13 nM.

As to `CC(C)(C)C(=O)N1N=CC[C@H]1c1cccc([11CH3])c1`, in data set [2], the SUVmax is listed as ~ 3.7.
